We go through 2 molecules from PMC11213733, “Computational approaches identify a transcriptomic fingerprint of drug-induced structural cardiotoxicity” (Cell Biology and Toxicology, 2024).

The subject of data set [1] is cardiac microtissues. Put plainly: Transcriptomic profiling (mRNA-seq) and DESeq2 differential gene expression analysis in cardiac microtissues. Conditions: for number of significant differentially expressed genes, 6hr high / number of significant differentially expressed genes, 6hr low / number of significant differentially expressed genes, 48hr high / number of significant differentially expressed genes, 48hr low / number of significant differentially expressed genes, 72hr high / number of significant differentially expressed genes, 72hr low: absolute log2(Fold-Change) > 1, FDR p ≤ 0.05; for number of significant differentially expressed genes, 6hr high / number of significant differentially expressed genes, 48hr high / number of significant differentially expressed genes, 72hr high: high concentration; for number of significant differentially expressed genes, 6hr low / number of significant differentially expressed genes, 48hr low / number of significant differentially expressed genes, 72hr low: low concentration.

For data set [2] the following is noted: ref FDA label, cited from earlier work; for Structural cardiotoxin?: FDA label references heart failure or a decrease in left ventricular ejection fraction; for Functional cardiotoxin?: compound annotation.
In data set [3] the test system is cardiac microtissues. Put plainly: ATP depletion (CellTiter Glo Luminescent Cell Viability Assay) in cardiac microtissues. It is filed as cell-based, human. Conditions: the concentration is the IC30 of ATP depletion, or cell death caused. How it is done:
Cellular ATP concentrations were also assessed using the CellTiter Glo® Luminescent Cell Viability Assay as per the manufacturer’s instructions (Promega).

Counter-ions that a name gives are not always drawn.

`COc1cccc2c1C(=O)c1c(O)c3c(c(O)c1C2=O)C[C@@](O)(C(=O)CO)C[C@@H]3O[C@H]1C[C@H](N)[C@H](O)[C@H](C)O1` [Doxorubicin HCl]: in the data set on cardiac microtissues [1], the “number of significant differentially expressed genes, 6hr high” value is 17; the “number of significant differentially expressed genes, 6hr low” value came to 26; the “number of significant differentially expressed genes, 48hr high” value was found to be 5; the “number of significant differentially expressed genes, 48hr low” value is 5. Further, in the data set on cardiac microtissues [1], the “number of significant differentially expressed genes, 72hr high” value is 4 and the “number of significant differentially expressed genes, 72hr low” value is given as 5. Besides, the “impact on gene expression profiles” value in the data set on cardiac microtissues [1] (cardiac microtissues, all treatments) is given as “low impact on gene expression profiles”. For the same molecule, in data set [2], the “Structural cardiotoxin?” value is “Y” and the “Functional cardiotoxin?” value is “Y”. Moreover, the “Transcriptomic high concentration (µM) = IC30 of ATP depletion” value in the data set on cardiac microtissues [3] came out at 0.36 µM.
Take `CS(=O)(=O)CCNCc1ccc(-c2ccc3ncnc(Nc4ccc(OCc5cccc(F)c5)c(Cl)c4)c3c2)o1` [Lapatinib]: in the data set on cardiac microtissues [1], the “number of significant differentially expressed genes, 6hr high” value is 27; the “number of significant differentially expressed genes, 6hr low” value is 17; the “number of significant differentially expressed genes, 48hr high” value is 13; the “number of significant differentially expressed genes, 48hr low” value amounted to 40. Further, in the data set on cardiac microtissues [1], the “number of significant differentially expressed genes, 72hr high” value came to 29 and the “number of significant differentially expressed genes, 72hr low” value is listed as 18. For the same molecule, in data set [2], the “Structural cardiotoxin?” value was “Y” and the “Functional cardiotoxin?” value is recorded as “Y”. Further, in the data set with cardiac microtissues [3], the “Transcriptomic high concentration (µM) = IC30 of ATP depletion” value came to 5.53 µM.
